This experiment deals with green peach apid (Myzus persicae). In words: Myzus test (cabbage leaves dipped). Type of experiment: in vivo. As to conditions: after 6 days; active compound concentration 0.1%. The procedure: Solvent: 7 parts by weight of dimethylformamide
Emulsifier: 1 part by weight of alkylaryl polyglycol ether
To produce a suitable preparation of active compound, 1 part by weight of active compound is mixed with the stated amount of solvent and the stated amount of emulsifier, and the concentrate is diluted with water to the desired concentration.
Cabbage leaves (Brassica oleracea) which are severely infested with the green peach apid (Myzus persicae) are treated by being dipped into the preparation of active compound of the desired concentration.
After the specified periods of time, the destruction in % is determined. 100% means that all the aphids have been killed; 0% means that none of the aphids have been killed.

Here are results for 2 compounds from patent US6774133B2, “Substituted spiroheterocyclic 1H-3-aryl-pyrrolidine-2,4-dione derivatives, processes for their preparation, and their use as pesticides” (Bayer Aktiengesellschaft, priority 1993, dated 2004).

Take `Cc1cc(C)c(C2=C(O)C3(CCCCC3)NC2=O)c(C)c1` [(A)]: the destruction rate result was “no destruction”. The value for `CC(C)C(=O)OC1=C(c2ccc(Cl)cc2Cl)C(=O)NC12CCCCC2` [(B)] was 20%.
